Results reported in US20090275574A1, “NOVEL COMPOUNDS-300” (ASTRAZENECA AB, priority 2008, published 2009).
pEC50: −log10 of the molar value.

Legend:
cloned human M2 receptor = molecular target: T1, cloned human M2 receptor (Homo sapiens, UniProt P08172); test: hM2 receptor GTPγS binding; assay type: biochemical; conditions: CHO membranes expressing hM2, [35S]GTPγS binding
T1 construct: purchased Perkin-Elmer RBHM2M; host or cells: Chinese hamster ovary cells (CHO), membranes
T1 sequence (P08172 1-466): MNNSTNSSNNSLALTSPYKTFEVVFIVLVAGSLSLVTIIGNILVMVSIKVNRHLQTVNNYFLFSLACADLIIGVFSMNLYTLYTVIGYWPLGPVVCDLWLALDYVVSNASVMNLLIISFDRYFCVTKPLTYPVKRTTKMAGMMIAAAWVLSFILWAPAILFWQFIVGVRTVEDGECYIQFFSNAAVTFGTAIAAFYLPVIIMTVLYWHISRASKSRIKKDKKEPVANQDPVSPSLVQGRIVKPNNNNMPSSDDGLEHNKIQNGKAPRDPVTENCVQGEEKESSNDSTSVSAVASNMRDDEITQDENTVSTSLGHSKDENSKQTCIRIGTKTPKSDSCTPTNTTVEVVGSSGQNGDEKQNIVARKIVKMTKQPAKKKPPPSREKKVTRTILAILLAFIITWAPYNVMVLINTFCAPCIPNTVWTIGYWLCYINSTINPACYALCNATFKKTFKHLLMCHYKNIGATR
Method: hM2 Receptor GTPγS Binding Membranes produced from Chinese hamster ovary cells (CHO) expressing the cloned human M2 receptor (human Muscarinic receptor subtype 2, gene bank access NM_000739), are obtained from Perkin-Elmer (RBHM2M). The membranes are thawed at 37° C., passed 3 times through a 23-gauge blunt-end needle, diluted in the GTPγS binding buffer (50 mM Hepes, 20 mM NaOH, 100 mM NaCl, 1 mM EDTA, 5 mM MgCl2, pH 7.4, 100 μM DTT). The EC50, IC50 and Emax of the compounds of the invention are evaluated from 10-point dose-response curves (three fold concentration range) done in 60 μl in 384-well non-specific binding surface plate (Corning). Ten microliters from the dose-response curves plate (5× concentration) are transferred to another 384 well plate containing 25 μl of the following: 5 μg of hM2 membranes, 500 μg of Flashblue beads (Perkin-Elmer) and GDP 25 μM. An additional 15 μl containing 3.3× (60,000 dpm) of GTPγ^35S (0.4 nM final) are added to the wells resulting in a total well volume of 50 μl. Basal and maximal stimulated [^35S]GTPγS binding are determined in absence and presence of 30 μM final of acetylcholine agonist. The membranes/beads mix are pre-incubated for 15 minutes at room temperature with 25 μM GDP prior to distribution in plates (12.5 μM final). The reversal of acetylcholine-induced stimulation (2 μM final) of [^35S]GTPγS binding is used to assay the antagonist properties (IC50) of the compounds. The plates are incubated for 60 minutes at room temperature then centrifuged at 400 rpm for 5 minutes. The radioactivity (cpm) is counted in a Trilux (Perkin-Elmer). Values of EC50, IC50 and Emax are obtained using sigmoidal fits of a non-linear curve-fitting program (XLfit version 4.2.2 Excel add-in version 4.2.2 build 18 math 1Q version 2.1.2 build 18) of percent stimulated [^35S]GTPγS binding vs. log(molar ligand). All pEC50 and pIC50 values are reported as arithmetic means±standard error of mean of ‘n’ independent experiments.

[1] = molecular target: T2, hM5 (human Muscarinic receptor subtype 5) (Homo sapiens, UniProt P08912); test: Human M5 calcium mobilization FLIPR assay; assay type: cell-based; conditions: hM5 expressed in CHO cells, intracellular Ca2+ release (FLIPR)
T2 construct: expressed in transfected cells; host or cells: CHO cells (ATCC)
T2 sequence (P08912 1-532): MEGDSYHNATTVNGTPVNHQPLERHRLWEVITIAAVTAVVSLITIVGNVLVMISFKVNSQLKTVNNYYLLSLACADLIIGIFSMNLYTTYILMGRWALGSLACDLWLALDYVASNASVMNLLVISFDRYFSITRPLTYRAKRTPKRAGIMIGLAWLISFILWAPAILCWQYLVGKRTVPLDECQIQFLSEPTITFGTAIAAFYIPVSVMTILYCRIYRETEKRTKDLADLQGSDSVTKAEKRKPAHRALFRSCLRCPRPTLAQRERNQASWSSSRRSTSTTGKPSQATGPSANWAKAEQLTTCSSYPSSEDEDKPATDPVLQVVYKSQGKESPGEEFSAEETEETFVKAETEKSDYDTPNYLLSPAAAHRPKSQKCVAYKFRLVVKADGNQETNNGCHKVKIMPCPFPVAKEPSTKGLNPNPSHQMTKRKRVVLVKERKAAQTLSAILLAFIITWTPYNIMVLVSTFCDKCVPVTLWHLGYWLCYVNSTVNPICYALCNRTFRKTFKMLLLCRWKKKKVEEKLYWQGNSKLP
Method: (§1) Human M1, rat M1, Human M3 and Human M5 Calcium Mobilization FLIPR™ Assay The compound activity in the present invention (EC50 or IC50) is measured using a 384 plate-based imaging assay that monitors drug induced intracellular Ca^2+ release in whole cells. Activation of hM1 (human Muscarinic receptor subtype 1, gene bank access NM_000738), rM1 (rat Muscarinic receptor subtype 1, gene bank access NM_080773), hM3 (human Muscarinic receptor subtype 3, gene bank access NM_000740NM_000740) and hM5 (human Muscarinic receptor subtype 5, gene bank access NM_0121258), receptors expressed in CHO cells (Chinese hamster ovary cells, ATCC) is quantified in a Molecular Devices FLIPR IITM instrument as an increase in fluorescent signal. Inhibition of hM3 and hM5 by compounds is determined by the decrease in fluorescent signal in response to 2 nM acetylcholine activation. […] Prior to experiment, the cell culture medium is removed from the plates by inversion. […] Plates are incubated at 37° C. for 60 minutes prior to start the experiment. The incubation is terminated by washing the cells four times in assay buffer, leaving a residual 25 μl buffer per well. Cell plates are then transferred to the FLIPR, ready for compound additions. The day of experiment, acetylcholine and compounds are diluted in assay buffer in three-fold concentration range (10 points serial dilution) for addition by FLIPR instrument. For all calcium assays, a baseline reading is taken for 10 seconds followed by the addition of 12.5 μl of compounds, resulting in a total well volume of 37.5 μl. Data is collected every second for 60 pictures and then every 6 seconds for 20 pictures prior to the addition of agonist. For hM3 and hM5, before agonist addition, a second baseline reading is taken for 10 seconds followed by the addition of 12.5 μl of agonist or buffer, producing a final volume of 50 μl. After agonist stimulation, the FLIPR continues to collect data every second for 60 pictures and then every 6 seconds for 20 pictures. The fluorescence emission is read using filter 1 (emission 510-570 nm) by the FLIPR on board CCD camera. Calcium mobilization output data are calculated as the maximal relative fluorescence unit (RFU) minus the minimal value for both compound and agonist reading frame (except for hM1 and rM1 using only the maximal RFU). Data are analyzed using sigmoidal fits of a non-linear curve-fitting program (XLfit version 4.2.2 Excel add-in version 4.2.2 build 18 math 1Q version 2.1.2 build 18). All pEC50 and pIC50 values are reported as arithmetic means±standard error of mean of ‘n’ independent experiments.

[2] = molecular target: T3, hM1 (human Muscarinic receptor subtype 1) (Homo sapiens, UniProt P11229); test: Human M1 calcium mobilization FLIPR assay; assay type: cell-based; conditions: hM1 expressed in CHO cells, intracellular Ca2+ release (FLIPR)
T3 construct: expressed in transfected cells; host or cells: CHO cells (ATCC)
T3 sequence (P11229 1-460): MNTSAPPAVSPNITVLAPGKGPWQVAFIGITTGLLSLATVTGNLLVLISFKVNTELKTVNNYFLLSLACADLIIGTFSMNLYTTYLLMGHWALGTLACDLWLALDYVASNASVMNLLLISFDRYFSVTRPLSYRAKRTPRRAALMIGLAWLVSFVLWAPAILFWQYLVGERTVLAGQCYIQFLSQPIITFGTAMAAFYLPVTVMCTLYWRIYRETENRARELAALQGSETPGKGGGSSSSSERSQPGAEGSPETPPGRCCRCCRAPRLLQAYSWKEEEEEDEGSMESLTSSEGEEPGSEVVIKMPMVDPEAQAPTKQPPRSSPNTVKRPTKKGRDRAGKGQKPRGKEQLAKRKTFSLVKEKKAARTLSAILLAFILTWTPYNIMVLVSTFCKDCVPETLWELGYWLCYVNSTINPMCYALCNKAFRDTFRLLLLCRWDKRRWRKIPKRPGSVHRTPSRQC
Method: as §1

[3] = molecular target: T4, hM3 (human Muscarinic receptor subtype 3) (Homo sapiens, UniProt P20309); test: Human M3 calcium mobilization FLIPR assay; assay type: cell-based; conditions: hM3 expressed in CHO cells, intracellular Ca2+ release (FLIPR)
T4 construct: expressed in transfected cells; host or cells: CHO cells (ATCC)
Method: as §1

[4] = one or more of the biological assays described above (unspecified); conditions: tested using one or more of the biological assays described above
Method: The compound activity in the present invention (EC50 or IC50) is measured using a 384 plate-based imaging assay that monitors drug induced intracellular Ca^2+ release in whole cells. Activation of hM1 (human Muscarinic receptor subtype 1, gene bank access NM_000738), rM1 (rat Muscarinic receptor subtype 1, gene bank access NM_080773), hM3 (human Muscarinic receptor subtype 3, gene bank access NM_000740NM_000740) and hM5 (human Muscarinic receptor subtype 5, gene bank access NM_0121258), receptors expressed in CHO cells (Chinese hamster ovary cells, ATCC) is quantified in a Molecular Devices FLIPR IITM instrument as an increase in fluorescent signal. Inhibition of hM3 and hM5 by compounds is determined by the decrease in fluorescent signal in response to 2 nM acetylcholine activation.
Membranes produced from Chinese hamster ovary cells (CHO) expressing the cloned human M2 receptor (human Muscarinic receptor subtype 2, gene bank access NM_000739), are obtained from Perkin-Elmer (RBHM2M). […] The EC50, IC50 and Emax of the compounds of the invention are evaluated from 10-point dose-response curves (three fold concentration range) done in 60 μl in 384-well non-specific binding surface plate (Corning). […] Basal and maximal stimulated [^35S]GTPγS binding are determined in absence and presence of 30 μM final of acetylcholine agonist. […] The radioactivity (cpm) is counted in a Trilux (Perkin-Elmer). […]

T4 sequence (P20309 whole entry): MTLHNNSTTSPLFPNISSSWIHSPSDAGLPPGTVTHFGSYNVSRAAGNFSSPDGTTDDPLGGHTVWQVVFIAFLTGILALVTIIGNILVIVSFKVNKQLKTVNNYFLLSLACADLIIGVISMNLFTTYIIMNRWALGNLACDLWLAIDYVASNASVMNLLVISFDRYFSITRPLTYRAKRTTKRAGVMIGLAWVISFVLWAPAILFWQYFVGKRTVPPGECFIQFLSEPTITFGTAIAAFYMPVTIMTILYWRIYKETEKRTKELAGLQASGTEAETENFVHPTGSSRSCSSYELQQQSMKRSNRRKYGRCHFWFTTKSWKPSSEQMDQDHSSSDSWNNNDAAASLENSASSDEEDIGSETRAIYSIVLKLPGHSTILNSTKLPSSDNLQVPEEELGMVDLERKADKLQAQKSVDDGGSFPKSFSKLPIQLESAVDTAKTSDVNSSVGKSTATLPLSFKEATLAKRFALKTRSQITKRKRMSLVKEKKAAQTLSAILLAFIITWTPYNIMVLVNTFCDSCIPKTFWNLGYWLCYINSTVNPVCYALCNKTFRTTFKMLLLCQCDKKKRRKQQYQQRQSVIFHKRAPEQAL

Compound	pEC50 (cloned human M2 receptor)	pEC50 [1]	pEC50 [2]	pEC50 [3]	efficacy [4]
O=C1CO[C@H]2CCCC[C@@H]2N1C1CCN(C2CCC(COCC3CCC3)CC2)CC1 (single isomer, unassigned) [Example 28]	< 4.05	< 4.40	7.29	< 4.40	–
CC(C)OCC1CCC(N2CCC(N3C(=O)NC[C@H]4CCCC[C@@H]43)CC2)CC1 (single isomer, unassigned) [Example 03]	5.77	< 4.84	7.24	< 4.40	–
O=C1CO[C@H]2CCCC[C@@H]2N1C1CCN(C2CCC(COCC3CCC3)CC2)CC1 (single isomer, unassigned) [Example 29]	< 4.05	< 4.40	6.82	< 4.40	–
CC(C)OC1CCC(N2CCC(N3C(=O)NC[C@H]4CCCC[C@@H]43)CC2)CC1 (single isomer, unassigned) [diastereomer 2]	–	–	–	–	does not show efficacy
